Data taken from patent publication EP4186488A1, “A TOPICAL COMPOSITION” (Unilever IP Holdings B.V., priority 2021, dated 2023).

Tested on: Human primary melanocytes
Assay: melanin content assay (MCA)
Assay type: cell-based
Settings: 72 hours incubation with active(s), wt% of active(s) as listed per example, OD 405nm, untreated cells = 100% melanin content
Method: In-vitro studies on the effect of the combination of the actives on melanin inhibition using melanin content assay (MCA) was used. The method is described below. Human primary melanocytes were grown in melanocytes growth medium (MGM) with human melanocyte growth supplement. 500 µL/well (5X10^4 cells/well) of this solution was plated in a 24 wells plate and incubated in an incubator (Thermo Scientific, Model 3111) at 37°C with 5% CO2 atmosphere. After 24 hours of incubation, cell cultures were treated with the lead actives either dissolved in water or DMSO. The cells were again incubated for 72 hours in an incubator (Thermo Scientific, Model 3111; conditions: 5% CO2, at 37°C). Comparative vehicle controls of 0.1 % (v/v) DMSO or media control (for aqueous actives) were also set up simultaneously. At the end of the incubation period, cell viability was determined using the calcein method. After calcein fluorescence readings were obtained, drained the cells and added fresh 0.15 ml of 1N NaOH (in 10% DMSO) per well. Cells were lysed by resuspension and incubation (60 °C/1 hr.). Then, 0.12 ml of this lysate was transferred to a fresh […] plate and measured OD405nm in a TECAN M1000 plate reader (estimate of relative melanin content). The spectrophotometric OD at 405nm for untreated cells (No active) is considered as 100% melanin content, with respect to this, treatment (active) percentage is calculated.

Structure (SMILES)	% melanin inhibition [%]
NC(=O)c1cccnc1 [B, Niacinamide]	7.4
NC(=O)c1cccnc1 [C, Niacinamide]	9.2
NC(=O)c1cccnc1 [D, Niacinamide]	6.1
CCCCCCC(O)CCCCCCCCCCC(=O)O (stereo not shown) [E, 12-hydroxystearic acid]	4.1
